Experiments:
PCT [1] = assay: Complementary activity of small subunits mutated at conserved positions, Furimazine substrate (Example 6); format: biochemical, human; conditions: MBP-PCT 3.3 ng/ml, supernatant
Description: Detection Methods: • (1) The concentration of large subunit-rSCFV5 fusion protein was diluted to 12.5 nM, and 15 µl was added per well; • (2) MBP-PCT fusion protein was diluted to 3.3 ng/ml with PBSAD, and 10 µl was added per well; • (3) HB2151 strain containing plasmids with different small subunit sequences were induced by IPTG at 30°C overnight, then treated with polymyxin B for 1.5h, and centrifuged to collect the supernatant, and 2.5µl supernatant was added per well; • (4) The above three components were slightly mixed, incubated at 37°C for 7 min, and Obuffer 6.37-3 containing Furimazine at a concentration of 25 µM was added, […], the luminescence signal value was detected using a bioluminescence detector; and • (5) Clones with RLU higher than 10,000 were picked. The substrate was replaced with CTZ-h substrate for retesting (Obuffer 6.37-3 containing CTZ-h at a concentration of 25 µM was added, and after 60 s, the luminescence signal value was detected using a bioluminescence detector), and a PBSAD control was added to test the signal-to-noise ratio.
In order to further determine whether these three conserved amino acid sequences were changed, this example constructed a random mutation library of these three positions, with a theoretical diversity of 8,000 and a library capacity of 10^6, and 2,000 single clones were picked. The method of protein induction and expression was the same as that in Example 1. The complementary activity was tested in the same manner as that in Example 4, but the signal-to-noise ratio was not retested with CTZ-h. Clones with different activity were randomly picked for sequencing.

[2] = system: human interleukin 6 (human IL6); assay: Luciferase dual-antibody complementary activation assay for human IL6 (Example 7); format: biochemical; conditions: estimated by ((mean+3SD)-RLU0.5)/(RLU5-RLU0.5)*4.5+0.5
Description: Expression and purification of human IL6 recombinant protein: An expression vector of human IL6 (UniProtKB ID: P05231, AA29~212) with six histidine-tagged (C-terminal) fusion proteins (SEQ ID NO: 90) was constructed. The fusion protein was recombinantly expressed in E. coli, and purified with nickel column. The protein purity was detected by denaturing SDS-polyacrylamide gel electrophoresis, and the protein concentration was detected by nucleic acid-protein quantification instrument.
Expression and purification of a fusion protein of the small and large subunits with IL6 antibody: prokaryotic expression plasmids of the fusion protein RB073-449-1 (SEQ ID NO: 91) of the small subunit peptide RB073 with human IL6 SCFV antibody 449-1, and the fusion protein OL-453 (SEQ ID NO: 92) of the large subunit with human IL6 SCFV antibody 453 were constructed. The fusion proteins were recombinantly expressed in E. coli, and purified with nickel column. The protein purity was detected by denaturing SDS-polyacrylamide gel electrophoresis, and the protein concentration was detected by nucleic acid-protein quantification instrument.
Test Methods • (1) Recombinant human IL6 protein was diluted with PBSA in 10-fold gradient starting from 5000 pg/ml, with 5 gradients in total. […]

PCT [3] = assay: Second library screening for PCT detection, clone supernatants, retest with CTZ-h (Example 4); format: biochemical, human
Description: In order to further improve the signal-to-noise ratio and complementary activity of the luciferase dual-antibody complementary activation assay, novel complementary luciferase small subunits were prepared in this example. Large subunit-rSCFV5 fusion protein (SEQ ID NO: 87) was kept unchanged, and the small subunit sequence of the rSCFV18-RB073 fusion protein (SEQ ID NO: 89) were modified by semi-randomization. The theoretical diversity was 6912, the library capacity was 10^6, and 3,000 single clones were picked. The method of protein induction and expression was the same as that in Example 2.
Detection Methods: • (1) The concentration of large subunit-rSCFV5 fusion protein was diluted to 12.5 nM, and 15 µl was added per well; • (2) MBP-PCT fusion protein was diluted to 3.3 ng/ml with PBSAD, and 10 µl was added per well; • (3) HB2151 strain containing plasmids with different small subunit sequences were induced by IPTG at 30°C overnight, then treated with polymyxin B for 1.5h, and centrifuged to collect the supernatant, and 2.5µl supernatant was added per well; • (4) The above three components were slightly mixed, incubated at 37°C for 7 min, and Obuffer 6.37-3 containing Furimazine at a concentration of 25 µM was added, and after 3 min, the luminescence signal value was detected using a bioluminescence detector; and • (5) Clones with RLU higher than 10,000 were picked. The substrate was replaced with CTZ-h substrate for retesting (Obuffer 6.37-3 containing CTZ-h at a concentration of 25 µM was added, and after 60 s, the luminescence signal value was detected using a bioluminescence detector), and a PBSAD control was added to test the signal-to-noise ratio.

PCT [4] = assay: Sensitivity and linear range for PCT detection of preferred small subunits (Example 5); format: biochemical, human; conditions: for luminescence value: normalized
Description: Detection Methods: • (1) The concentration of large subunit-rSCFV5 fusion protein was diluted with PBSA to 8.3~25nM, and 15µl was added per well; • (2) MBP-PCT fusion proteins were diluted with PBSAD in a downward gradient starting from 2.5 µg/ml, and 10 µl was added per well; • (3) The rSCFV18-small subunit mutant-containing fusion protein was diluted with PBSA to 30~180 nM, and 15 µl was added per well; • (4) The above three components were slightly mixed, incubated at 37°C for 15 min, and Obuffer 6.37-3 containing CTZ-h at a concentration of 15 µM was added, and the luminescence signal value was immediately detected using a bioluminescence detector (the luminescence value was normalized);

Row | LLD (low limit of detection) [2] [pg/mL] | Sequence | activity (luminescence signal value), 3 min (PCT [1]; 3 min after Furimazine 25 µM) | activity (luminescence signal value), 6 min (PCT [1]; 6 min after Furimazine 25 µM) | Signal-to-noise ratio (PCT [3]; PCT+/PCT-, MBP-PCT 3.3 ng/ml, CTZ-h) | PCT+ (PCT [3]; luminescence signal value with MBP-PCT 3.3 ng/ml, large subunit-rSCFV5 12.5 nM, CTZ-h 25 µM, 60 s) | PCT- (PCT [3]; luminescence signal value, PBSAD control without PCT, large subunit-rSCFV5 12.5 nM, CTZ-h 25 µM, 60 s) | luminescence value (PCT [4]; PCT 0.0, background) | luminescence value (PCT [4]; PCT 1 (pg/ml)) | luminescence value (PCT [4]; PCT 3 (pg/ml)) | luminescence value (PCT [4]; PCT 10 (pg/ml)) | luminescence value (PCT [4]; PCT 30 (pg/ml)) | luminescence value (PCT [4]; PCT 100 (pg/ml)) | luminescence value (PCT [4]; PCT 1000 (pg/ml)) | luminescence value (PCT [4]; PCT 10000 (pg/ml)) | luminescence value (PCT [4]; PCT 100000 (pg/ml)) | luminescence value (PCT [4]; PCT 250000 (pg/ml)) | Signal-to-noise ratio at 1000 pg/ml (PCT [4]; large subunit 8.3~25 nM, small subunit fusion 30~180 nM, CTZ-h 15 µM)
1 | 0.79 | VEGYRLFDRKS [RB073] | 46672 | 32973 |  |  |  |  |  |  |  |  |  |  |  |  |  | 
2 |  | VTGYRLFEEIL [P114, reference compound] |  |  | 1.9 | 1493 | 786 | 5000 | 5324 | 5403 | 5314 | 5724 | 5429 | 18939 | 99257 | 804042 | 1431884 | 3.8

Source: patent EP4700040A1, “PEPTIDE AND LUMINESCENT COMPLEX CONTAINING SAME” (Shenzhen Loggene Life Science & Technology Co., Ltd., priority 2023, dated 2024)
